According to ChEMBL document CHEMBL4321825, “Discovery of a Series of 5-Azaquinazolines as Orally Efficacious IRAK4 Inhibitors Targeting MyD88L265P Mutant Diffuse Large B Cell Lymphoma” (J Med Chem, 2019):
≈ marks a conversion by molar mass, not a printed value. Calls of active or inactive are those of the source. The calls are words filed in the database; no cut-off is given here.

How the values were obtained:
CDK8/Cyclin C = CDK8/Cyclin C (Homo sapiens, UniProt P49336); assay: Inhibition of human recombinant CDK8/cyclinC expressed in Baculovirus system
Sequence of CDK8/Cyclin C (P49336 whole entry): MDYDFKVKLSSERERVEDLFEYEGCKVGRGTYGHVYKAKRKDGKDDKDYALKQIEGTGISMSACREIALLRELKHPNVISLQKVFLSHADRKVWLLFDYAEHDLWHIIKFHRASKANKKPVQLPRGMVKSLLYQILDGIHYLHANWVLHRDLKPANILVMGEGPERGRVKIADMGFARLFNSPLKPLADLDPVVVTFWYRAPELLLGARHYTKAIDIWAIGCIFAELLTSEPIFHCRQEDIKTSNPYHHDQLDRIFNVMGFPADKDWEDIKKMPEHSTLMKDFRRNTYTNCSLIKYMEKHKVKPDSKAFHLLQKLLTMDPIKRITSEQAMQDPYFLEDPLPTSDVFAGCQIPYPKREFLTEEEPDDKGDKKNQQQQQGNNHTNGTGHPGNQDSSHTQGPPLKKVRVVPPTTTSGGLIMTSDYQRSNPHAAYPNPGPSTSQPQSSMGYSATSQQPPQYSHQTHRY
Sequence of CDK8/Cyclin C (P24863 whole entry, further chain): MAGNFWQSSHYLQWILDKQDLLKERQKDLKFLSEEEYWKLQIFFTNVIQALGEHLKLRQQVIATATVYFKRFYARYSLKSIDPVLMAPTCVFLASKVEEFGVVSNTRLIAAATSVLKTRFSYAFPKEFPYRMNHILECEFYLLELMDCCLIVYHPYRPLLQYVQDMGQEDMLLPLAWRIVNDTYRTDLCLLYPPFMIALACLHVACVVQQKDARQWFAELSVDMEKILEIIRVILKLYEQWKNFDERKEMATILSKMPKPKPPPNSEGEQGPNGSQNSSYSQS

[1] = Oral bioavailability in Han Wistar rat at 2 mg/kg; assay type: ADME, organism-based; settings: in vivo
[2] = AUC in SCID mouse at 50 mg/kg, po; assay type: ADME, organism-based; settings: in vivo
[3] = Lipophilicity, logD of the compound at pH 7.4 by shake-flask assay; assay type: physicochemical; settings: buffer
[4] = Intrinsic clearance in rat hepatocytes assessed per million cells; assay type: ADME, cell-based, Hepatocyte; settings: read-out: CLH
[5] = Unbound fraction in mouse plasma at 37 degC by equilibrium dialysis; assay type: ADME, cell-free
[6] = target: Cyclin-dependent kinase 7 (Homo sapiens, UniProt P50613); assay: Inhibition of CDK7 (unknown origin)
Sequence of Cyclin-dependent kinase 7 (P50613 whole entry): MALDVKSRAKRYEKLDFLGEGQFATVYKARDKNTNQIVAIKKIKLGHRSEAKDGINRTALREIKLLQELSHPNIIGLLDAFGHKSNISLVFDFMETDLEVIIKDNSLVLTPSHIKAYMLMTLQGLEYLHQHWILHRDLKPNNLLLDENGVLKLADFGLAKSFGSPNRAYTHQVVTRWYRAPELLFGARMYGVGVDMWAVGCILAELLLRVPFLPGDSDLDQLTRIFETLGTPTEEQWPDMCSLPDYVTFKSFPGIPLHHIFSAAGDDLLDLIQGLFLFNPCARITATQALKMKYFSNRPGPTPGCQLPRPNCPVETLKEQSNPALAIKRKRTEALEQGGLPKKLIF

OCI-Ly10 [7] = assay: Antitumor activity against human OCI-LY10 cells xenografted in CB.17 SCID mouse assessed as induction of tumor regression at 50 mg/kg, po QD dosed 34 days after tumor cell inoculation and co-treated with 12 mg/kg, po QD ibrutinib; assay type: functional, organism-based
[8] = target: Dual specificity protein kinase CLK3 (Homo sapiens, UniProt P49761); assay: Inhibition of human recombinant CLK3 expressed in Baculovirus system
Sequence of Dual specificity protein kinase CLK3 (P49761 whole entry): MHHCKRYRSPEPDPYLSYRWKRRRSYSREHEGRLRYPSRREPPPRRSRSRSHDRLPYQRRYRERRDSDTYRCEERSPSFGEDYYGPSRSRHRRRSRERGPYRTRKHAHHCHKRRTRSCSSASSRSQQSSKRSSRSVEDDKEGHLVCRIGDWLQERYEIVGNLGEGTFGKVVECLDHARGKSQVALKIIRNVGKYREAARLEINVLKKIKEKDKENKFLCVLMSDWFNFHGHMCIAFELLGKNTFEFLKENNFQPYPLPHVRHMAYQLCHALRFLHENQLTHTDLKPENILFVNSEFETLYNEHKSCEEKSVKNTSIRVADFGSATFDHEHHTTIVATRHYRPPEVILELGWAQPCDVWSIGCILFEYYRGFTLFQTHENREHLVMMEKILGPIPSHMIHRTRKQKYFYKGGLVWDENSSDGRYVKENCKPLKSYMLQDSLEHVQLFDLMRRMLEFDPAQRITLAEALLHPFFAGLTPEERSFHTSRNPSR

[9] = Unbound fraction in rat plasma at 37 degC by equilibrium dialysis; assay type: ADME, cell-free
[10] = target: T1, Cyclin-dependent kinase 9 (Homo sapiens, UniProt P50750); assay: Inhibition of CDK9 (unknown origin)
T1 sequence (P50750 whole entry): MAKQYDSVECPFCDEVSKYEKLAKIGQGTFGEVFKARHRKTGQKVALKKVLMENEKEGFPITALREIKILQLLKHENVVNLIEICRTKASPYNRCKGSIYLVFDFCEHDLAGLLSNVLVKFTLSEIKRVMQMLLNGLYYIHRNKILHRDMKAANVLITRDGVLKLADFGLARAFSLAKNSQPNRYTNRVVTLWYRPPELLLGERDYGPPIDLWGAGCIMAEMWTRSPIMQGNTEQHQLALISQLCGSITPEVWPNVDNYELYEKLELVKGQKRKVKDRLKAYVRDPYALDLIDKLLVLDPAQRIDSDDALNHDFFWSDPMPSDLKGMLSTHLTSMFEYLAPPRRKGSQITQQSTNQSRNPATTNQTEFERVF

[11] = target: Dual specificity protein kinase CLK1 (Homo sapiens, UniProt P49759); assay: Inhibition of human recombinant CLK1 expressed in Escherichia coli
[12] = Unbound fraction in human plasma at 37 degC by equilibrium dialysis; assay type: ADME, cell-free
[13] = Oral bioavailability in rat at 1 mg/kg; assay type: ADME, organism-based; settings: in vivo
[14] = Clearance in rat at 0.5 mg/kg, iv; assay type: ADME, organism-based; settings: in vivo
[15] = target: T2, Serine/threonine-protein kinase ULK2 (Homo sapiens) (UniProt Q8IYT8); assay: Inhibition of ULK2 (unknown origin) at 1 uM relative to control
T2 sequence (whole entry): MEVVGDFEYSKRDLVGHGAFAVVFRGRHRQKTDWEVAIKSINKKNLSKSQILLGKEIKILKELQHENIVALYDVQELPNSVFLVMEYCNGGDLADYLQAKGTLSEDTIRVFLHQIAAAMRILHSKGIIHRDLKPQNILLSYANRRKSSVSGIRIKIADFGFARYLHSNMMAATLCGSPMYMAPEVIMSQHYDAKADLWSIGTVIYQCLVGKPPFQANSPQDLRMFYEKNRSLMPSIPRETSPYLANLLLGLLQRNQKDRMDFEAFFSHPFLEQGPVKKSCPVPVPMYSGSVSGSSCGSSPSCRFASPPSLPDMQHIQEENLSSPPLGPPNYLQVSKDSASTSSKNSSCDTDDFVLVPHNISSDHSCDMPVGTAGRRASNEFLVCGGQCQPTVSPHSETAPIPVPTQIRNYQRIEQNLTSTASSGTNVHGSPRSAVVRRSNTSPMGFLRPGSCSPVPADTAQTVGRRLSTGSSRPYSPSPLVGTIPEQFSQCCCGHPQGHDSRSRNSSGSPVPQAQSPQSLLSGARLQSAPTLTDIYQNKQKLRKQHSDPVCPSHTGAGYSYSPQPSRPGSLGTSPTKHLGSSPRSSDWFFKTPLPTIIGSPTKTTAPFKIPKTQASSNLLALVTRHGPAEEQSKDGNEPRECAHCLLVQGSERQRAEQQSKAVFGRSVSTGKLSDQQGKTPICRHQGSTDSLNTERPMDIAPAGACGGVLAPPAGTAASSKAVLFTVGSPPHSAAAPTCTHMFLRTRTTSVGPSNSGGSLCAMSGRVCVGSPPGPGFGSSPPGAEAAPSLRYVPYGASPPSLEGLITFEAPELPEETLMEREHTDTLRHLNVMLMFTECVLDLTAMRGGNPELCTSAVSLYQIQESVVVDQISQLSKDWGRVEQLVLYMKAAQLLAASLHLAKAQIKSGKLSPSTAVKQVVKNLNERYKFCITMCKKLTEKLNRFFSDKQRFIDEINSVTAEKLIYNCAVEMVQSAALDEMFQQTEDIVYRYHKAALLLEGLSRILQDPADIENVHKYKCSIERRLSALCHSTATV

[16] = target: Mitogen-activated protein kinase kinase kinase 9 (Homo sapiens) (UniProt P80192); assay: Inhibition of MLK1 (unknown origin) at 1 uM relative to control
Sequence of Mitogen-activated protein kinase kinase kinase 9 (Homo sapiens) (P80192 whole entry, looked up): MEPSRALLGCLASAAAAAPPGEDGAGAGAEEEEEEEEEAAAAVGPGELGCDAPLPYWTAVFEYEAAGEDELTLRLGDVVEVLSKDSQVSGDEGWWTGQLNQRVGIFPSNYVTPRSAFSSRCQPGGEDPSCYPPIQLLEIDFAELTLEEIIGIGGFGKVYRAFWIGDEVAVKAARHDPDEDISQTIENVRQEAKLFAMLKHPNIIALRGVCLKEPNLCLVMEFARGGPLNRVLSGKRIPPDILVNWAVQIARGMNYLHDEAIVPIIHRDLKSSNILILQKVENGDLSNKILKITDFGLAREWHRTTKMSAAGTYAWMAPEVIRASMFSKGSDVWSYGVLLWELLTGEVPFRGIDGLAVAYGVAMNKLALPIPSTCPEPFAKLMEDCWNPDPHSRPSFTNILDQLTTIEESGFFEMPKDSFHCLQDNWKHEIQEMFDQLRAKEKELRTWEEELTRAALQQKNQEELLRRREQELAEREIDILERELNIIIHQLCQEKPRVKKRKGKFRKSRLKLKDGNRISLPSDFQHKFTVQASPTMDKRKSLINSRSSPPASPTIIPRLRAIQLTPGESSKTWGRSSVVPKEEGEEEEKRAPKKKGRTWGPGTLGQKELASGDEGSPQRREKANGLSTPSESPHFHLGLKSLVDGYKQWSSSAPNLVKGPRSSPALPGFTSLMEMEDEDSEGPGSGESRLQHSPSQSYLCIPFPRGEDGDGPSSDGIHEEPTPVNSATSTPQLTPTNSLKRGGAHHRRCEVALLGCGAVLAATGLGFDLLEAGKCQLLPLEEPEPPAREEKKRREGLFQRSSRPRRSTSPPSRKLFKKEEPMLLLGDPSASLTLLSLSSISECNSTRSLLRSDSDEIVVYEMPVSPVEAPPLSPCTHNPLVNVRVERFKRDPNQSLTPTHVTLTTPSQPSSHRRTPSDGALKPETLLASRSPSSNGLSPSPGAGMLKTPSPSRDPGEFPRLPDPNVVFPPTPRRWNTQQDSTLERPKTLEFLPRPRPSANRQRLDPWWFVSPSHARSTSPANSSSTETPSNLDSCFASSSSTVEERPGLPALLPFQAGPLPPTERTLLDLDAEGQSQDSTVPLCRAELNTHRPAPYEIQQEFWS

[17] = target: Interleukin-1 receptor-associated kinase 1 (Homo sapiens, UniProt P51617); assay: Inhibition of IRAK1 (unknown origin)
Sequence of Interleukin-1 receptor-associated kinase 1 (P51617 whole entry): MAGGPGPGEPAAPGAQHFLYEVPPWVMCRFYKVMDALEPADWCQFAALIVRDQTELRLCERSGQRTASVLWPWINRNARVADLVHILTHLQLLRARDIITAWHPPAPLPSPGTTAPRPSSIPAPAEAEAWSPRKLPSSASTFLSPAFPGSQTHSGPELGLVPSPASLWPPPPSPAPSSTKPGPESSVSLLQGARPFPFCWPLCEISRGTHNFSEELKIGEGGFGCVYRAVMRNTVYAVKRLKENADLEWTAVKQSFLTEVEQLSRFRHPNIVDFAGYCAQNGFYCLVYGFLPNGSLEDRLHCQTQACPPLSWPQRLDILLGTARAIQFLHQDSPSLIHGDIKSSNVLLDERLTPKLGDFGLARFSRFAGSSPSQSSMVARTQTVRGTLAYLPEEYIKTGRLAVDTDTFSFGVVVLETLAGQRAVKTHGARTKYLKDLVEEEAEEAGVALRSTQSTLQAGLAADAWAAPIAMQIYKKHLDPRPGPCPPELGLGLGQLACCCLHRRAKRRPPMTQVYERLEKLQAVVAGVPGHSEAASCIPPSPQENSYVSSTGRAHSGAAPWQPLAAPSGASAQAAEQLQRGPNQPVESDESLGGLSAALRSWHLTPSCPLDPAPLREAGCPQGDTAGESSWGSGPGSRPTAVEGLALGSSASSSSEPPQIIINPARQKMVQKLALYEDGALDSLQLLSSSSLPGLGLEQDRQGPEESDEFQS

[18] = Aqueous solubility in pH 7.4 phosphate buffer; assay type: physicochemical
[19] = target: T1, Cyclin-dependent kinase 9; assay: Inhibition of CDK9 (unknown origin) at 1 uM relative to control
[20] = target: Dual specificity protein kinase CLK4 (Homo sapiens, UniProt Q9HAZ1); assay: Inhibition of human recombinant CLK4 expressed in Baculovirus system
Sequence of Dual specificity protein kinase CLK4 (Q9HAZ1 whole entry, canonical isoform): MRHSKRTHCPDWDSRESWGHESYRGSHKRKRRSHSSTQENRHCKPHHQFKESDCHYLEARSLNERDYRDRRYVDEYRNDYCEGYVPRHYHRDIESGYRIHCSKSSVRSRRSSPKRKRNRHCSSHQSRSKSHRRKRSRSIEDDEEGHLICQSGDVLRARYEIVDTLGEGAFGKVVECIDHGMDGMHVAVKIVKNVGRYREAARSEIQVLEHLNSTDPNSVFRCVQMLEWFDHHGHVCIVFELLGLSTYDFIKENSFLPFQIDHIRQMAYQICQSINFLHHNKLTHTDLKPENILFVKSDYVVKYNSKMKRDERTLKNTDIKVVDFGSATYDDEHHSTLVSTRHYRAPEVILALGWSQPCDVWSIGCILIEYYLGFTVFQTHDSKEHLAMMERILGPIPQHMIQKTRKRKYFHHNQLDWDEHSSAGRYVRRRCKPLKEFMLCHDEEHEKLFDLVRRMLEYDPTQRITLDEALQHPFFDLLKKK

[21] = target: Casein kinase I isoform gamma-1 (Homo sapiens) (UniProt Q9HCP0); assay: Inhibition of CK1g1 (unknown origin) at 1 uM relative to control
[22] = Plasma clearance in Han Wistar rat at 1 mg/kg, iv; assay type: ADME, organism-based
OCI-Ly10 [23] = assay: Antitumor activity against human OCI-LY10 cells xenografted in CB.17 SCID mouse assessed as inhibition of tumor growth at 50 mg/kg, po QD dosed 34 days after tumor cell inoculation; assay type: functional, organism-based
[24] = Intrinsic permeability in human Caco2 cells; assay type: ADME, cell-based; settings: Caco-2
[25] = target: Dual specificity protein kinase CLK2 (Homo sapiens, UniProt P49760); assay: Inhibition of human recombinant CLK2 expressed in Baculovirus system
Sequence of Dual specificity protein kinase CLK2 (P49760 whole entry): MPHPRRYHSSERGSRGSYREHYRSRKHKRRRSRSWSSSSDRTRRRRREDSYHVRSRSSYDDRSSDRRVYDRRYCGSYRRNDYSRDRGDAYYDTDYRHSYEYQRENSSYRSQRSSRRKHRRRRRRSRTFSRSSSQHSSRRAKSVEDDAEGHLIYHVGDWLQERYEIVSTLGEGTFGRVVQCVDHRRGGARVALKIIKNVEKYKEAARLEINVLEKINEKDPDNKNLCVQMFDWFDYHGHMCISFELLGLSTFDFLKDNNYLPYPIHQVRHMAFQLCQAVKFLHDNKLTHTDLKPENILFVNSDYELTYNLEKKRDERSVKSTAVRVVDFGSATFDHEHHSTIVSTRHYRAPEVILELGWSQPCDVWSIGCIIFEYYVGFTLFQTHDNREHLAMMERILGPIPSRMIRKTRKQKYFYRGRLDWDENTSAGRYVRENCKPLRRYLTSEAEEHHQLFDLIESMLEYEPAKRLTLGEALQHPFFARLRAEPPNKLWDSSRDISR

[26] = Intrinsic clearance in human hepatocytes assessed per million cells; assay type: ADME, cell-based, Hepatocyte; settings: read-out: CLH
[27] = Volume of distribution at steady state in Han Wistar rat at 1 mg/kg, iv; assay type: ADME, organism-based; settings: in vivo, read-out: Vdss
OCI-Ly10 [28] = assay: Growth inhibition of human OCI-LY10 cells at 2.1 nM incubated for 3 days by Alamar blue dye based fluorescence assay (reference value: 3%); assay type: functional; settings: OCI-Ly10, 72 h, read-out: GI
OCI-Ly10 [29] = assay: Growth inhibition of human OCI-LY10 cells at 42 nM incubated for 3 days by Alamar blue dye based fluorescence assay (reference value: 3%); assay type: functional; settings: OCI-Ly10, 72 h, read-out: GI
OCI-LY19 [30] = assay: Growth inhibition of human OCI-LY19 cells at 10 nM incubated for 3 days by Alamar blue dye based fluorescence assay (reference value: 3%); assay type: functional; settings: OCI-LY19, 72 h, read-out: GI
OCI-Ly10 [31] = assay: Growth inhibition of human OCI-LY10 cells at 4.2 nM incubated for 3 days by Alamar blue dye based fluorescence assay (reference value: 3%); assay type: functional; settings: OCI-Ly10, 72 h, read-out: GI
OCI-Ly10 [32] = assay: Growth inhibition of human OCI-LY10 cells at 0.3 nM incubated for 3 days by Alamar blue dye based fluorescence assay (reference value: 3%); assay type: functional; settings: OCI-Ly10, 72 h, read-out: GI
OCI-LY19 [33] = assay: Growth inhibition of human OCI-LY19 cells at 42 nM incubated for 3 days by Alamar blue dye based fluorescence assay (reference value: 3%); assay type: functional; settings: OCI-LY19, 72 h, read-out: GI
OCI-LY19 [34] = assay: Growth inhibition of human OCI-LY19 cells at 2.1 nM incubated for 3 days by Alamar blue dye based fluorescence assay (reference value: 3%); assay type: functional; settings: OCI-LY19, 72 h, read-out: GI
OCI-LY19 [35] = assay: Growth inhibition of human OCI-LY19 cells at 4.2 nM incubated for 3 days by Alamar blue dye based fluorescence assay (reference value: 3%); assay type: functional; settings: OCI-LY19, 72 h, read-out: GI
OCI-LY19 [36] = assay: Growth inhibition of human OCI-LY19 cells at 0.3 nM incubated for 3 days by Alamar blue dye based fluorescence assay (reference value: 3%); assay type: functional; settings: OCI-LY19, 72 h, read-out: GI
OCI-Ly10 [37] = assay: Growth inhibition of human OCI-LY10 cells at 10 nM incubated for 3 days by Alamar blue dye based fluorescence assay (reference value: 3%); assay type: functional; settings: OCI-Ly10, 72 h, read-out: GI
OCI-Ly10 [38] = assay: Antitumor activity against human OCI-LY10 cells xenografted in CB.17 SCID mouse assessed as induction of tumor stasis at 12 mg/kg, po QD dosed 34 days after tumor cell inoculation; assay type: functional, organism-based

COC(=O)N1CCN([C@H]2CC[C@H](Nc3ncnc4ccc(C#N)cc34)CC2)CC1
IC50 (CDK8/Cyclin C): 68 nM
bioavailability [1]: > 100%
AUC [2]: 390 µM·h
logD [3]: 2.2
hepatocyte CLint [4]: < 1.6 µL/min/1e6 cells
fraction unbound [5]: 0.28
IC50 [6]: 3100 nM
Activity (OCI-Ly10 [7]): Active
IC50 [8]: > 10000 nM
fraction unbound [9]: 0.05
IC50 [10]: 370 nM
IC50 [11]: 1700 nM
fraction unbound [12]: 0.23
bioavailability [13]: > 100%
clearance [14]: 7.4 mL/min/kg
inhibition [15]: 58%
inhibition [16]: 51%
IC50 [17]: 44 nM
solubility [18]: 130 µM (≈ 51.3 µg/mL)
inhibition [19]: 84%
IC50 [20]: 610 nM
inhibition [21]: 53%
clearance [22]: 7.4 mL/min/kg
TGI (OCI-Ly10 [23]): Active
Papp [24]: 20 ×10⁻⁶ cm/s
IC50 [25]: 360 nM
hepatocyte CLint [26]: < 1 µL/min/1e6 cells
Vd [27]: 1.3 L/kg

C=CC(=O)N1CCC[C@@H](n2nc(-c3ccc(Oc4ccccc4)cc3)c3c(N)ncnc32)C1 [IBRUTINIB]
inhibition of growth at 0.0021 µM (OCI-Ly10 [28]): 36%
inhibition of growth at 0.042 µM (OCI-Ly10 [29]): 93%
inhibition of growth at 0.01 µM (OCI-LY19 [30]): 7%
inhibition of growth at 0.0042 µM (OCI-Ly10 [31]): 60%
inhibition of growth at 0.0003 µM (OCI-Ly10 [32]): 5%
inhibition of growth at 0.042 µM (OCI-LY19 [33]): 11%
inhibition of growth at 0.0021 µM (OCI-LY19 [34]): 7%
inhibition of growth at 0.0042 µM (OCI-LY19 [35]): 6%
inhibition of growth at 0.0003 µM (OCI-LY19 [36]): 3%
inhibition of growth at 0.01 µM (OCI-Ly10 [37]): 83%
Activity (OCI-Ly10 [38]): Active
